Measured values taken from patent publication US11208382B2, “Entinostat-containing compound, crystal form of compound thereof, and preparation method therefor and pharmaceutical composition thereof” (Hangzhou SoliPharma Co., Ltd., priority 2017, dated 2021).

Key:
Type in all cases: physicochemical
[1] = apparent water solubility test; conditions: for solubility at 3 min: thermodynamic from solid, apparent water solubility, water bath 25° C.±2° C., visual check for clear solution
Procedure: Entinostat, Compound A and Compound B in the present invention were tested for the apparent water solubility, and the operations were as follows:
Placed 3 mg of sample in a 100 mL Erlenmeyer flask in a water bath at 25° C.±2° C., added water by doubling, stirred at about 200 rpm/min, checked visually if the solution was clear. The interval between each addition of water was 3 minutes, and the maximum amount of water to add was 60 mL.

[2] = phase stability test of the crystalline forms; conditions: for phases after storage: stored at room temperature and high temperature for 14 days
Procedure: X-ray powder diffraction (XRPD): performed on Bruker D8 Advance diffractometer. The scan range 3-40° 20, step size 0.02020, and speed 0.2 s/step. Appropriate amounts of Crystalline Form of Compound A and Crystalline Form of Compound B in the present invention were used respectively for the phase stability test. The conditions were room temperature and high temperature (50° C.).

[3] = chemical stability test by HPLC analysis
Procedure: HPLC data were collected on Ultimate 3000 under the following conditions: column, YMC-Pack ODS-AQ (4.6*250 mm*5 μm); column temperature, 40° C.; flow rate, 1.5 mL/min; detection wavelength, 254 nm; injection volume 3 uL; operation time, 40 min; mobile phase, a mixture of acetonitrile: 10 mM monopotassium phosphate=1:2. 1. Appropriate amounts of entinostat and Compound A in the present invention were used respectively for HPLC analysis, the purity of the compounds and the maximum single impurity (RRT=1.403) were calculated. 2. Chemical stability tests of entinostat and Compound A in the present invention were performed. The conditions were as follows: room temperature, high temperature (40° C.), high humidity (75% RH), and acceleration (40° C.-75% RH), and the storage time is 14 days. Using HPLC analysis, the change of maximum single impurity (RRT=1.403), the change of the main ingredient level and the change of total impurities number were studied.

[4] = High temperature (50° C.), 7 days
[5] = High temperature (50° C.), 14 days
[6] = High temperature (40° C.), 14 days, first line so headed (r10), listed as Entinostat
[7] = High temperature, 14 days, second line so headed (r12), listed as Entinostat
[8] = Room temperature, 0 days, listed as Entinostat
[9] = Room temperature, 14 days, listed as Entinostat
[10] = Speeded-up (acceleration, 40° C.-75% RH), 14 days, listed as Entinostat
[11] = High temperature (40° C.), 14 days, first line so headed (r10)
[12] = High temperature, 14 days, second line so headed (r12)
[13] = Speeded-up (acceleration, 40° C.-75% RH), 14 days

Nc1ccccc1NC(=O)c1ccc(CNC(=O)OCc2cccnc2)cc1.O=C(O)/C=C\C(=O)O [Compound B]
solubility at 3 min [1]: 1010 µg/mL | Crystal form after storage [2, 4]: unchanged | Crystal form after storage [2, 5]: unchanged | Crystal form after storage ([2]; Room temperature, 7 days): unchanged | Crystal form after storage ([2]; Room temperature, 14 days): unchanged | phases after storage [2]: unchanged

Nc1ccccc1NC(=O)c1ccc(CNC(=O)OCc2cccnc2)cc1 [entinostat, N-(2-aminophenyl)-4-[N-(pyridin-3-yl)methoxycarbonyllaminomethyl]benzamide]
impurity at RRT=1.403, main ingredient and number of impurities after storage ([3]; 14 days under room temperature, high temperature, high humidity and acceleration): essentially unchanged | Main ingredient (%) [3, 6]: 98.4% | Number of impurities (≥0.04%) [3, 6]: 5 | RRT = 1.403 (%) maximum single impurity [3, 6]: 1.44% | Main ingredient (%) [3, 7]: 98.4% | Number of impurities (≥0.04%) [3, 7]: 5 | RRT = 1.403 (%) maximum single impurity [3, 7]: 1.43% | Main ingredient (%) [3, 8]: 98.4% | Number of impurities (≥0.04%) [3, 8]: 4 | RRT = 1.403 (%) maximum single impurity [3, 8]: 1.42% | Main ingredient (%) [3, 9]: 98.4% | Number of impurities (≥0.04%) [3, 9]: 4 | RRT = 1.403 (%) maximum single impurity [3, 9]: 1.42% | Main ingredient (%) [3, 10]: 98.4% | Number of impurities (≥0.04%) [3, 10]: 5 | RRT = 1.403 (%) maximum single impurity [3, 10]: 1.41% | solubility at 3 min [1]: < 50 µg/mL

Nc1ccccc1NC(=O)c1ccc(CNC(=O)OCc2cccnc2)cc1 [Compound A]
Main ingredient (%) [3, 11]: 99.9% | Number of impurities (≥0.04%) [3, 11]: 0 | RRT = 1.403 (%) maximum single impurity [3, 11]: 0.11% | Main ingredient (%) [3, 12]: 99.9% | Number of impurities (≥0.04%) [3, 12]: 0 | RRT = 1.403 (%) maximum single impurity [3, 12]: 0.11% | Main ingredient (%) ([3]; Room temperature, 0 days): 99.9% | Number of impurities (≥0.04%) ([3]; Room temperature, 0 days): 0 | RRT = 1.403 (%) maximum single impurity ([3]; Room temperature, 0 days): 0.12% | Main ingredient (%) ([3]; Room temperature, 14 days): 99.9% | Number of impurities (≥0.04%) ([3]; Room temperature, 14 days): 0 | RRT = 1.403 (%) maximum single impurity ([3]; Room temperature, 14 days): 0.13% | Main ingredient (%) [3, 13]: 99.9% | Number of impurities (≥0.04%) [3, 13]: 0 | RRT = 1.403 (%) maximum single impurity [3, 13]: 0.13% | Crystal form after storage [2, 4]: unchanged | Crystal form after storage [2, 5]: unchanged | Crystal form after storage ([2]; Room temperature, 7 days): unchanged | Crystal form after storage ([2]; Room temperature, 14 days): unchanged | phases after storage [2]: unchanged

Nc1ccccc1NC(=O)c1ccc(CNC(=O)OCc2cccnc2)cc1 [polymorph A, N-(2-aminophenyl)-4-[N-(pyridin-3-yl)methoxycarbonyllaminomethyl]benzamide]
solubility in water (in words) ([1]; finding of the inventors on prior-art polymorphs, no method given): low
